Reference: patent US8637443B2, “Cleaning compositions and methods comprising a hydrofluoro-olefin or hydrochlorofluoro-olefin solvent” (Honeywell International Inc., priority 2008, dated 2014)

Assay: toxicity (comparative statement, no method given)
Settings: in comparison to CF3CH═CF2 (HFO-1225zc)

SMILES: FC=C(F)C(F)(F)F [HFO-1225yez, 1,1,1,2,3 pentafluoropropene]
- degree of toxicity: relatively low degree of toxicity
